Experimental findings from PubChem BioAssay (NCI) are described below.

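Exposure lasted 48 hours, with cells grown in 96-well plates and compounds tested at five concentrations. TGI is the concentration that stops growth completely.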

Test systems include UACC-62 melanoma; RPMI-8226 leukemia; MDA-N; SK-MEL-28 melanoma; HCC-2998 colon; SF-295 CNS; U251 CNS; SNB-19 CNS; HT29 colon; MDA-MB-231 breast; BT-549 breast; NCI/ADR-RES ovarian; SK-MEL-2 melanoma; OVCAR-3 ovarian; SNB-75 CNS; HL-60(TB) leukemia; A549 NSCLC; SW-620 colon.
Assay in all cases: growth of human tumour cells (NCI), 48 h

With `COC(=O)C1=C(C(=O)OC)N(c2ccncc2)C(c2ccco2)=CC1c1ccccc1[N+](=O)[O-]` (stereo not given), the TGI in the assay with UACC-62 melanoma was determined as 27 µM; with RPMI-8226 leukemia it was 5.69 µM; in the assay on MDA-N it was 7.51 µM; in the assay with SK-MEL-28 melanoma it was 27.2 µM; in the assay with HCC-2998 colon, 3.7 µM; in the assay on SF-295 CNS it was 15.8 µM. The TGI was determined as 10.7 µM with U251 CNS; 41 µM in the assay with SNB-19 CNS; 3.95 µM with HT29 colon; 27.5 µM in the assay on MDA-MB-231 breast; 25.4 µM with BT-549 breast; 56.1 µM in the assay on NCI/ADR-RES ovarian. Besides, the TGI is 36.1 µM in the assay with SK-MEL-2 melanoma; more than 28.4 µM with OVCAR-3 ovarian; 16.3 µM in the assay with SNB-75 CNS; 6.06 µM with HL-60(TB) leukemia; 31.3 µM with A549 NSCLC.

As to `CC(C)C(=O)/C=C/c1ccc(Cl)cc1Cl`, the TGI in the assay on UACC-62 melanoma is 25.7 µM; in the assay with SW-620 colon, 7.92 µM; with RPMI-8226 leukemia it was more than 100 µM; with MDA-N, 7.06 µM; in the assay with SK-MEL-28 melanoma it was 30.6 µM; in the assay on HCC-2998 colon, 30 µM. For the same compound, the TGI with SF-295 CNS is 30.9 µM; in the assay on U251 CNS it was 25.2 µM; in the assay on SNB-19 CNS, 29.3 µM; in the assay on HT29 colon it was 13.4 µM; in the assay on MDA-MB-231 breast, 38.7 µM; with BT-549 breast, 14.9 µM. Moreover, the TGI in the assay on NCI/ADR-RES ovarian was 54.6 µM; with SK-MEL-2 melanoma, 27.6 µM; with OVCAR-3 ovarian it was 16.1 µM; in the assay on SNB-75 CNS, 27.7 µM; with HL-60(TB) leukemia, more than 100 µM; with A549 NSCLC, 30.4 µM.

As for `O=S(=O)(N1CCCCN(S(=O)(=O)C(F)(F)F)CCCN(S(=O)(=O)C(F)(F)F)CCCCN(S(=O)(=O)C(F)(F)F)CCCN(S(=O)(=O)C(F)(F)F)CCCCN(S(=O)(=O)C(F)(F)F)CCCN(S(=O)(=O)C(F)(F)F)CCCCN(S(=O)(=O)C(F)(F)F)CCC1)C(F)(F)F`, the TGI in the assay with UACC-62 melanoma was more than 31.6 µM; in the assay with SW-620 colon it was more than 31.6 µM; in the assay with RPMI-8226 leukemia, more than 100 µM; with MDA-N, more than 31.6 µM; in the assay with SK-MEL-28 melanoma, more than 31.6 µM; in the assay on HCC-2998 colon, more than 31.6 µM. In addition, the TGI is more than 31.6 µM with SF-295 CNS; more than 100 µM with U251 CNS; more than 31.6 µM in the assay on SNB-19 CNS; more than 31.6 µM in the assay on HT29 colon; more than 31.6 µM in the assay on MDA-MB-231 breast; more than 31.6 µM in the assay with BT-549 breast. The TGI in the assay with NCI/ADR-RES ovarian was more than 31.6 µM; with SK-MEL-2 melanoma, more than 100 µM; with OVCAR-3 ovarian it was more than 31.6 µM; in the assay on SNB-75 CNS, more than 31.6 µM; in the assay on HL-60(TB) leukemia, more than 31.6 µM; in the assay on A549 NSCLC, more than 31.6 µM.

Take `CCOC(=O)n1ccc2c(C(=O)OC)c(C(=O)OC)cc(/C(=C/C(=O)OC)C(=O)OC)c21`: the TGI in the assay with UACC-62 melanoma, in the assay on SW-620 colon, in the assay on RPMI-8226 leukemia, in the assay on MDA-N, with SK-MEL-28 melanoma and with HCC-2998 colon was more than 100 µM each time. The TGI in the assay with SF-295 CNS, in the assay on U251 CNS, with SNB-19 CNS, in the assay on HT29 colon, with MDA-MB-231 breast and in the assay on BT-549 breast was more than 100 µM each time. Further, the TGI with NCI/ADR-RES ovarian, with SK-MEL-2 melanoma, in the assay on OVCAR-3 ovarian, in the assay with SNB-75 CNS, in the assay with HL-60(TB) leukemia and with A549 NSCLC was more than 100 µM each time.

Regarding `N#CCc1nc(-c2cc3ccc(O)cc3oc2=O)cs1`, the TGI in the assay on UACC-62 melanoma was 63.3 µM; in the assay with SW-620 colon, more than 100 µM; in the assay with RPMI-8226 leukemia, 81.2 µM; with MDA-N, more than 100 µM; with SK-MEL-28 melanoma, more than 100 µM; in the assay with HCC-2998 colon, more than 100 µM. For the same compound, the TGI with SF-295 CNS, with U251 CNS, in the assay with SNB-19 CNS, in the assay on HT29 colon, in the assay on MDA-MB-231 breast and in the assay on BT-549 breast was more than 100 µM in each case. In addition, the TGI is more than 100 µM in the assay on NCI/ADR-RES ovarian; 66 µM with SK-MEL-2 melanoma; more than 100 µM with SNB-75 CNS; more than 100 µM with HL-60(TB) leukemia; more than 100 µM in the assay on A549 NSCLC.

Turning to `Oc1cc(F)cc2cccnc12`, the TGI in the assay on UACC-62 melanoma is more than 42.6 µM; with SW-620 colon it was more than 100 µM; in the assay on RPMI-8226 leukemia, 1.17 µM; with MDA-N, more than 100 µM; in the assay with SK-MEL-28 melanoma, more than 100 µM; in the assay with HCC-2998 colon, more than 100 µM. For the same compound, the TGI in the assay with SF-295 CNS was more than 100 µM; in the assay on U251 CNS it was more than 100 µM; in the assay with SNB-19 CNS it was more than 100 µM; in the assay on HT29 colon, more than 36.7 µM; in the assay on MDA-MB-231 breast, 32.9 µM; with BT-549 breast it was 70.2 µM. Besides, the TGI in the assay with NCI/ADR-RES ovarian is 6.74 µM; in the assay on SK-MEL-2 melanoma, more than 100 µM; in the assay with SNB-75 CNS it was more than 100 µM; in the assay on HL-60(TB) leukemia it was 0.454 µM; with A549 NSCLC, more than 50.8 µM.

As for `O=C1c2ccccc2C(=O)c2c1sc1nc3ccccc3n21`, the TGI in the assay with UACC-62 melanoma is 3.51 µM; in the assay with RPMI-8226 leukemia it was 5.26 µM; with MDA-N it was 3.49 µM; in the assay on HCC-2998 colon, 3.79 µM; in the assay on SF-295 CNS it was 3.04 µM; in the assay with U251 CNS, 9.37 µM. In addition, the TGI in the assay with SNB-19 CNS came to 4.42 µM; in the assay on HT29 colon, 13.8 µM; in the assay with MDA-MB-231 breast, 9.12 µM; with BT-549 breast, 3.45 µM; in the assay with NCI/ADR-RES ovarian, 4.7 µM; with OVCAR-3 ovarian, 9.34 µM. The figures for the TGI with SNB-75 CNS, with HL-60(TB) leukemia and with A549 NSCLC were 46.1 µM, more than 100 µM and 25.1 µM, respectively.

`CC(=O)O[C@H]1C(=O)[C@@]2(C)[C@H]([C@H](OC(=O)c3ccccc3)[C@]3(O)C[C@H](OC(=O)[C@H](O)[C@@H](NC(=O)C(C)(O)C(C)O)c4ccccc4)C(C)=C1C3(C)C)[C@]1(OC(C)=O)CO[C@@H]1C[C@@H]2O` (stereo not given in full): the TGI with UACC-62 melanoma is more than 50 µM; in the assay with SW-620 colon it was more than 50 µM; in the assay with RPMI-8226 leukemia it was more than 16.6 µM; with MDA-N, 0.0744 µM; in the assay with SK-MEL-28 melanoma it was more than 50 µM; in the assay with HCC-2998 colon, 0.743 µM. Besides, the TGI with SF-295 CNS was 16.5 µM; in the assay with SNB-19 CNS, more than 50 µM; in the assay with MDA-MB-231 breast, 43.1 µM; with BT-549 breast it was 3.45 µM; in the assay on NCI/ADR-RES ovarian, more than 50 µM; in the assay on OVCAR-3 ovarian, 0.437 µM. The results for the TGI in the assay with SNB-75 CNS, in the assay on HL-60(TB) leukemia and with A549 NSCLC were 0.398 µM, 0.298 µM and more than 50 µM, respectively.
